How the values were obtained:
[1] = target: T1, chorismate lyase (Escherichia coli, UniProt P26602, C15S/C82S); assay: X-ray crystal structure; type: binding; details: both cysteines changed to serine; product complex
T1 construct: gene ubiC; monomer, 164 residues
T1 sequence (P26602 2-165 C15S/C82S): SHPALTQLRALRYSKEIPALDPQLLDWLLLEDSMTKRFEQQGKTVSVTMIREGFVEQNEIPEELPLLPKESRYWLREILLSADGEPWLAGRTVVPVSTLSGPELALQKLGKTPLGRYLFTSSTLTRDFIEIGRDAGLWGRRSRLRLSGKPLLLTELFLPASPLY

[2] = target: T2, catabolite gene activator protein (CAP) (Escherichia coli, UniProt P0ACJ8, A145T); assay: X-ray crystal structure, soak; type: binding; details: crystals grown with cAMP soaked in 10 mM adenosine; bound in one subunit; text also prints the variant as Thr144Ala
T2 construct: gene crp; homodimer
T2 sequence (P0ACJ8 2-210 A145T): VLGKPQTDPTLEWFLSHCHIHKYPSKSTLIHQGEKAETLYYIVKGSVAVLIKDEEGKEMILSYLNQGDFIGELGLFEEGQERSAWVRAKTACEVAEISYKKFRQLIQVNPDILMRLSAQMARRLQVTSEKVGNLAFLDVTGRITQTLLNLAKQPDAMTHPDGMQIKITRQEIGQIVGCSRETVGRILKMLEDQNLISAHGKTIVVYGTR

For O=C(O)c1ccc(O)cc1 [4-hydroxy benzoate], the X-ray crystal structure [1] was “the active double Cys-to-Ser variant complexed with product were determined”.
With Nc1ncnc2c1ncn2[C@@H]1O[C@H](CO)[C@@H](O)[C@H]1O [adenosine] the “X-ray crystal structure, soak” value [2] was “Adenosine was preferentially substituted for cAMP in only one of the two CAP subunits”.
